Source: ChEMBL document CHEMBL1126501, “Differences in antiviral activities for isomers of a fluorinated cyclobutane nucleoside analog” (Bioorg Med Chem Lett, 1993)

Assays:
Format in all cases: functional, organism-based
[1] = test system: Human alphaherpesvirus 1; assay: In vitro antiviral activity was evaluated against HSV-1 using viral plaque reduction assay; Value ranges from […]
[2] = test system: Human alphaherpesvirus 3; assay: In vitro antiviral activity was evaluated against VZV using viral plaque reduction assay; Value ranges from 0.02-0.08
[3] = test system: Human betaherpesvirus 5; assay: In vitro antiviral activity was evaluated against HCMV using viral plaque reduction assay
[4] = test system: Human alphaherpesvirus 2; assay: In vitro antiviral activity was evaluated against HSV-2 using viral plaque reduction assay
[5] = test system: Human alphaherpesvirus 1; assay: In vitro antiviral activity was evaluated against HSV-1 using viral plaque reduction assay; Value ranges from 0.7-2
[6] = test system: Human betaherpesvirus 5; assay: In vitro antiviral activity was evaluated against HCMV using viral plaque reduction assay; Value ranges from 4-40
[7] = test system: Human alphaherpesvirus 3; assay: In vitro antiviral activity was evaluated against VZV using viral plaque reduction assay; Value ranges from 2-4
[8] = test system: Human alphaherpesvirus 3; assay: In vitro antiviral activity was evaluated against VZV using viral plaque reduction assay
[9] = test system: Human alphaherpesvirus 1; assay: In vitro antiviral activity was evaluated against HSV-1 using viral plaque reduction assay
[10] = test system: Human betaherpesvirus 5; assay: In vitro antiviral activity was evaluated against HCMV using viral plaque reduction assay; Value ranges from 20-40

| IC50 [4] | IC50 [9] | SMILES | IC50 [3] | IC50 ([4]; Human alphaherpesvirus 2) | further results |
| --- | --- | --- | --- | --- | --- |
|  |  | Nc1nc(O)c2ncn([C@@H]3C[C@H](CO)C3CO)c2n1 (mixture of isomers) | 2000 nM | 40 nM | IC50 [1]: 40 nM; IC50 [2]: 20 nM |
| 700 nM |  | Nc1nc(O)c2ncn([C@@H]3C(F)[C@H](CO)C3CO)c2n1 (mixture of isomers; form 1) |  |  | IC50 [5]: 700 nM; IC50 [6]: 4 µM; IC50 [7]: 2000 nM |
| > 250000 nM | > 250000 nM | Nc1nc(O)c2ncn([C@@H]3C(F)[C@H](CO)C3CO)c2n1 (mixture of isomers; form 2) | > 250000 nM |  | IC50 [8]: > 250 µM |
|  | 400 nM | Nc1nc2c(ncn2COCCO)c(=O)[nH]1 [ACYCLOVIR] |  | 400 nM | IC50 [10]: 20 µM |
